Laboratory results reported in patent US8367716B2 (priority 2003, dated 2013).

Assays:
[1] = tested on: V. cholerae N16961; test: Crystal violet quantitative biofilm assay in glass test tubes; assay type: cell-based, Vibrio cholerae
[2] = tested on: Salmonela enteritidis; test: Biofilm formation in Salmonela enteritidis; assay type: cell-based
[3] = tested on: HeLa cells; test: HeLa cell toxicity (cell morphology); assay type: cell-based, human
Protocol: (§1) Safety and toxicity assays. For HeLa cell toxicity studies, various concentrations (0-, 25-, 50-, 100-, 200- and 400 μM) of c-di-GMP were tested in separate wells of chamber slides containing HeLa cells prepared as described above in complete media (in the absence of bacteria). HeLa cell morphology was examined microscopically after 12-, 24- and 48 h incubation. The potential lethality of c-di-GMP administered to mice was also examined. In these studies, adult female CD-1 mice and 5 day old infant mice were inoculated orally with 50 μL of 200 μM c-di-GMP and examined 24 h after c-di-GMP treatment.

[4] = tested on: CD-1 mice; test: Lethality in mice after oral c-di-GMP; assay type: in vivo; details: 50 μL of 200 μM, orally, examined 24 h after treatment
Protocol: as §1

Nc1nc2c(ncn2C2OC3COP(=O)(O)OC4C(COP(=O)(O)OC3C2O)OC(n2cnc3c(=O)[nH]c(N)nc32)C4O)c(=O)[nH]1 (centres unmarked) [c-di-GMP, 3′,5′-cyclic diguanylic acid]
effect on biofilm formation ([1]; N16961 wildtype, 24 h static, LB, dose-dependent): increase biofilm formation | effect on biofilm formation ([1]; RocS mutant): increased biofilm forming activity | effect on biofilm formation [2]: induce or enhance biofilm formation | concentrations relatively noncytotoxic to HeLa cells [3]: < 400 µM | effect on HeLa cell morphology ([3]; 0-, 25-, 50-, 100-, 200- and 400 μM, 12-, 24- and 48 h): no obvious visible effect | changes in HeLa cell morphology ([3]; 400 μM, 48 h exposure): morphological changes | changes in HeLa cell morphology ([3]; up to 400 μM, 24 h exposure): did not cause any obvious changes in cell morphology | lethality [4]: no lethal effects were observed
